Reference: ChEMBL document CHEMBL1158472, “Carbonic anhydrase-encoded dynamic constitutional libraries: toward the discovery of isozyme-specific inhibitors” (J Med Chem, 2009)

Key:
Carbonic anhydrase 2 [1] = target: T1, Carbonic anhydrase 2 (Homo sapiens, UniProt P00918); test: Binding affinity to human carbonic anhydrase 2
Carbonic anhydrase 1 = Carbonic anhydrase 1 (Homo sapiens, UniProt P00915); test: Inhibition of human erythrocytes carbonic anhydrase 1 by CO2 hydration assay
Carbonic anhydrase 2 [2] = target: T1, Carbonic anhydrase 2; test: Inhibition of human erythrocytes carbonic anhydrase 2 by CO2 hydration assay

Sequence of Carbonic anhydrase 1 (P00915 whole entry): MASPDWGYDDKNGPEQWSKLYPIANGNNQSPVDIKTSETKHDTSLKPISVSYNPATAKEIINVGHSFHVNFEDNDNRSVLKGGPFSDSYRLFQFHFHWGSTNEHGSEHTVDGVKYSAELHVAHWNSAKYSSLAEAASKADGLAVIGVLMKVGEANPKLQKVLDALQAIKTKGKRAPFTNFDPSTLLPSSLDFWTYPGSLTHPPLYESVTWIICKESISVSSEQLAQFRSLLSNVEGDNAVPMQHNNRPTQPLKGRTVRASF

| Ki (Carbonic anhydrase 2 [1]) [µM] | Ki (Carbonic anhydrase 1) [µM] | Ki (Carbonic anhydrase 2 [2]) [µM] | SMILES |
| --- | --- | --- | --- |
| 460 |  |  | Cc1ccc(S(=O)(=O)O)cc1 |
|  | > 100 | > 100 | Fc1ccccc1CNCc1ccccc1 |
|  | > 100 | > 100 | Fc1ccccc1/C=N/Cc1ccccc1 |
|  | > 100 | > 100 | O=C(O)c1cccc(CNCc2ccccc2)c1 |
|  | > 100 | > 100 | O=C(O)c1cccc(/C=N/Cc2ccccc2)c1 |
|  |  | > 100 | O=S(=O)(O)c1ccc(/C=N/Cc2ccccc2)o1 |
